{"source": "patent US20030187037A1", "about": "“Acetamide derivatives and the use thereof as inhibitors of coagulation factors xa and viia” (priority 2000, published 2003)", "key": {"[1]": {"molecular_target": "TF/VIIa (Homo sapiens, UniProt P08709)", "sequence (P08709 213-466 limits assumed)": "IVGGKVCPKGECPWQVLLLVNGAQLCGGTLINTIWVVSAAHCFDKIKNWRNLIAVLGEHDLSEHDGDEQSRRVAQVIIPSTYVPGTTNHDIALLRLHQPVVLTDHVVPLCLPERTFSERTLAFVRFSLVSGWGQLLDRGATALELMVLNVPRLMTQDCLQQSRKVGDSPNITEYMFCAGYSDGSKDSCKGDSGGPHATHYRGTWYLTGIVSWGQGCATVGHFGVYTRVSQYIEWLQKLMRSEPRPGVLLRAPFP", "sequence (P08709 61-212 partner limits assumed)": "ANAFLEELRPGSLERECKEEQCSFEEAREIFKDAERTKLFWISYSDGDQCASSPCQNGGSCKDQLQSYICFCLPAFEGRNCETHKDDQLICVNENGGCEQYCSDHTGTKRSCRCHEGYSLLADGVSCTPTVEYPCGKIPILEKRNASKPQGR", "sequence (P13726 33-295 partner)": "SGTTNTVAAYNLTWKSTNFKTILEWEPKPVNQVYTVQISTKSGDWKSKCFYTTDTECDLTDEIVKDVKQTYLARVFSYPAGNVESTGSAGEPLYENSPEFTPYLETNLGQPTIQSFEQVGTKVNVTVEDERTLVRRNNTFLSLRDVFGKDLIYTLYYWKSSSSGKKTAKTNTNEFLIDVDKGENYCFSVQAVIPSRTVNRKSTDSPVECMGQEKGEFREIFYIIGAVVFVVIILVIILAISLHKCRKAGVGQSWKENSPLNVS", "assay": "Inhibition of TF/VIIa (IC50, headed 'Affinity to Receptors')", "type": "biochemical", "excerpt": "The inhibition of factor VIIa by the compounds according to the invention and the measurement of the anticoagulant and antithrombotic activity can be determined by conventional in-vitro or in-vivo methods. A conventional method for the measurement of the inhibition of factor VIIa is described, for example, by H. F. Ronning et al. in Thrombosis Research 1996, 84, 73-81."}, "[2]": {"molecular_target": "factor Xa, human (Homo sapiens, UniProt P00742)", "sequence (P00742 235-488 limits assumed)": "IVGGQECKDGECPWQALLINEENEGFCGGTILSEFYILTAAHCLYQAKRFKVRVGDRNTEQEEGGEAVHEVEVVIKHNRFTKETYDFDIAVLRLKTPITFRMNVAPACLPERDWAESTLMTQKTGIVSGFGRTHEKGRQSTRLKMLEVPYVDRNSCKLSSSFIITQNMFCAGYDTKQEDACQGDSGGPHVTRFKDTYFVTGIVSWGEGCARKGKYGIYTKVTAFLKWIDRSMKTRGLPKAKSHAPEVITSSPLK", "sequence (P00742 41-179 partner limits assumed)": "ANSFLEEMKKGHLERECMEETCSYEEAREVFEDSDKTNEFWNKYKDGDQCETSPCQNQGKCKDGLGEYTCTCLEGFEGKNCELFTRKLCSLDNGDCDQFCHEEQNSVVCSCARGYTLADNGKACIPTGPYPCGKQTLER", "assay": "Inhibition of factor Xa (IC50, headed 'Affinity to Receptors')", "type": "biochemical", "excerpt": "The inhibition of factor Xa by the compounds according to the invention and the measurement of the anticoagulant and antithrombotic activity can be determined by conventional in-vitro or in-vivo methods. A suitable method is described, for example, by J. Hauptmann et al. in Thrombosis and Haemostasis 1990, 63, 220-223.\nThe inhibition of factor Xa can be measured, for example, by the method of T. Hara et al. in Thromb. Haemostas. 1994, 71, 314-319."}}, "data": [{"smiles": "CCCN(Cc1cccc(C(=N)N)c1)C(=O)Cc1ccc(-c2ccccc2S(N)(=O)=O)cc1", "note": "[Example 3.3, N-3-amidinobenzyl-N-propyl-2-(2′-sulfamoylbiphenyl-4-yl)acetamide]", "values": [{"measurement": "IC50", "setting": "[1]", "result": 900, "unit": "nM"}, {"measurement": "IC50", "setting": "[2]", "result": 2000, "unit": "nM"}]}, {"smiles": "CCCN(Cc1cccc(C(=N)N)c1)C(=O)Cc1ccc(-c2ccccc2S(C)(=O)=O)cc1", "note": "[Example 4.3, N-(3-amidinobenzyl)-N-propyl-2-(2′-methylsulfonylbiphenyl-4-yl)acetamide]", "values": [{"measurement": "IC50", "setting": "[1]", "result": 700, "unit": "nM"}, {"measurement": "IC50", "setting": "[2]", "result": 1000, "unit": "nM"}]}, {"smiles": "CS(=O)(=O)c1ccccc1-c1ccc(CC(=O)N(Cc2cccc(C(=N)N)c2)c2ccccc2)cc1", "note": "[N-(3-amidinobenzyl)-N-phenyl-2-(2′-methylsulfonylbiphenyl-4-yl)acetamide]", "values": [{"measurement": "IC50", "setting": "[1]", "result": 650, "unit": "nM"}, {"measurement": "IC50", "setting": "[2]", "result": 550, "unit": "nM"}]}, {"smiles": "N=C(N)c1cccc(CN(C(=O)Cc2ccc(-c3ccccc3S(N)(=O)=O)cc2)c2ccccc2)c1", "note": "[N-(3-amidinobenzyl)-N-phenyl-2-(2′-sulfamoylbiphenyl-4-yl)acetamide]", "values": [{"measurement": "IC50", "setting": "[1]", "result": 1500, "unit": "nM"}, {"measurement": "IC50", "setting": "[2]", "result": 2000, "unit": "nM"}]}]}
